What follows are molecules tested against Recombinant human cathepsin A (Homo sapiens (Human), UniProt P10619) (assay: Cathepsin A inhibitory activity (cleavage of Bodipy FL-labeled bradykinin, microfluidic capillary electrophoresis)). Conditions: read-out: Activity (Cathepsin A inhibitory activity, IC50).
Recombinant human cathepsin A, sequence (P10619 29-326): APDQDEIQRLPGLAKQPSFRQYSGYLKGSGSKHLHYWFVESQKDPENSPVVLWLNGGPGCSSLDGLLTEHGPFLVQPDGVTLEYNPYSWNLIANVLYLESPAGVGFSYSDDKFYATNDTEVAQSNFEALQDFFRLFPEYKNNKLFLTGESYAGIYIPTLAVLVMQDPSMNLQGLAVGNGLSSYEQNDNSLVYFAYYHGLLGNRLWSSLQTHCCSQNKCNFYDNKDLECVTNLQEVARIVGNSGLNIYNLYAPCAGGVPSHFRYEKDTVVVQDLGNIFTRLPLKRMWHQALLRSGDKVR
Recombinant human cathepsin A, sequence (P10619 327-480): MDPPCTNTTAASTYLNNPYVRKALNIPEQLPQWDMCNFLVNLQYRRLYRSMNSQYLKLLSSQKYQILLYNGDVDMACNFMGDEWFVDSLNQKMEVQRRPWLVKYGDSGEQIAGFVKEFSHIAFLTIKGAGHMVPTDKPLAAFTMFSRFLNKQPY
Assay type: biochemical
Experimental: Pharmacological Tests a) Cathepsin A Inhibitory Activity
Briefly, cathepsin A was incubated at 10 μg/ml with cathepsin L at 1 μg/ml in activation buffer (25 mM 2-(morpholin-4-yl)-ethanesulfonic acid (MES), pH 6.0, containing 5 mM dithiothreitol (DTT)) for 15 min at 37° C.
The activated cathepsin A was diluted in assay buffer (25 mM MES, pH 5.5, containing 5 mM DTT) and mixed with the test compound (dissolved in assay buffer containing (v/v) 3% DMSO) or, in the control experiments, with the vehicle in a multiple assay plate. After incubation for 15 min at room temperature, as substrate then bradykinin carrying an N-terminal ®Bodipy FL (4,4-difluoro-5,7-dimethyl-4-bora-3a,4a-diaza-s-indacene-3-propionyl) label (JPT Peptide Technologies GmbH; dissolved in assay buffer) was added to the mixture. […] After incubation for 15 min at room temperature the reaction was stopped by the addition of stop buffer (130 mM 2-(4-(2-hydroxy-ethyl)-piperazin-1-yl)-ethanesulfonic acid, pH 7.4, containing (v/v) 0.013% ®Triton X-100, 0.13% Coating Reagent 3 (Caliper Life Sciences), 6.5% DMSO and 20 μM ebelactone B (Sigma, #E0886)).
Uncleaved substrate and product were then separated by a microfluidic capillary electrophoresis on a LabChip® 3000 Drug Discovery System (12-Sipper-Chip; Caliper Life Sciences) and quantified by determination of the respective peak areas. Substrate turnover was calculated by dividing product peak area by the sum of substrate and product peak areas, and the enzyme activity and the inhibitory effect of the test compound thus quantified.
`COc1cc(OC)nc(Oc2cccnc2C(=O)NC(CC(=O)O)c2ccccc2Cl)n1` (stereo not drawn) [compound 615] gave an IC50 of 3.58 µM.

Same assay, conditions: read-out: Activity (IC50, cathepsin A inhibition)
In the case of `O=C(O)CC(NC(=O)c1cncc(-c2ccccc2)c1)c1ccccc1Cl` (stereo not drawn) [compound 566], the IC50 is reported as 11.7 µM.
Work on `O=C(O)CC(NC(=O)c1cccc(Br)n1)c1ccccc1Cl` (stereo not drawn) [compound 562] yielded an IC50 of 2.1 µM.
In the case of `O=C(O)CC(NC(=O)c1cccc(-c2ccccc2)n1)c1ccccc1Cl` (stereo not drawn) [compound 563], the IC50 is reported as 3.09 µM.
`O=C(O)CC(NC(=O)c1ccncc1)c1ccccc1Cl` (stereo not drawn) [compound 524] was tested, and the IC50 was 10.2 µM.
`Cc1cc(C)nc(C(=O)NC(CC(=O)O)c2ccccc2Cl)c1` (stereo not drawn) [compound 533] was tested, and the IC50 was 6.29 µM.
Molecule `O=C(O)CC(NC(=O)c1cc(O)ccn1)c1ccccc1Cl` (stereo not drawn) [compound 529] has an IC50 of 5.12 µM.

Same assay, conditions: read-out: Activity (IC50, cathepsin A inhibitory activity)
For `COc1cc(C(=O)N[C@@H](CC(=O)O)c2ccccc2C)nc(OC)n1` [compound 16, (S)-3-[(2,6-Dimethoxy-pyrimidine-4-carbonyl)-amino]-3-o-tolyl-propionic acid], the IC50 was 1.05 µM.
Molecule `COc1ccc(C(=O)N[C@@H](CC(=O)O)c2ccccc2F)nc1-c1ccc(C)c(F)c1` [compound 290] has an IC50 of 3.81 µM.
Work on `Cc1ccccc1[C@H](CC(=O)O)NC(=O)c1cccc(F)n1` [compound 48] yielded an IC50 of 1.67 µM.
In the case of `COc1ccc(C(=O)N[C@@H](CC(=O)O)c2ccccc2F)nc1-c1cccc(Cl)c1` [compound 265], the IC50 is reported as 1.72 µM.
In the case of `COc1cccnc1C(=O)N[C@@H](CC(=O)O)c1ccccc1C` [compound 9], the IC50 is reported as 7.25 µM.
With `COc1ccc(C(=O)N[C@@H](CC(=O)O)c2ccccc2Cl)nc1-c1cc(C)cnc1Cl` [compound 481] the IC50 was 8.77 µM.
For `COc1ccc(C(=O)N[C@@H](CC(=O)O)c2ccccc2Cl)nc1-c1ccc(Cl)c(F)c1` [compound 480], the IC50 was 4.37 µM.
`Cc1ccccc1[C@H](CC(=O)O)NC(=O)c1cccc(-n2ccnc2)n1` [compound 56] was tested, and the IC50 was 11.1 µM.
In the case of `COc1ccc(-c2nc(C(=O)N[C@@H](CC(=O)O)c3ccccc3F)ccc2OC)cc1` [compound 259], the IC50 is reported as 5.01 µM.
`COc1ccc(C(=O)N[C@@H](CC(=O)O)c2ccccc2Cl)nc1-c1cccc(-c2nnc(C)o2)c1` [compound 484] showed an IC50 of 6.69 µM.
`Cc1cc(F)ccc1-c1cncc(C(=O)N[C@@H](CC(=O)O)c2ccccc2C)c1` [compound 82] was tested, and the IC50 was 3.08 µM.
For `COc1ccc(C(=O)N[C@@H](CC(=O)O)c2ccccc2C)nc1-c1ccc(C#N)cc1` [compound 465], the IC50 was 6.8 µM.
`COc1ncc(C(=O)N[C@@H](CC(=O)O)c2ccccc2C)cc1-c1ccc(F)cc1` [compound 407] was tested, and the IC50 was 4.39 µM.
`COc1ccc(C(=O)N[C@@H](CC(=O)O)c2ccccc2F)nc1-c1cccc(C#N)c1` [compound 273] gave an IC50 of 9.57 µM.
In the case of `COc1ccc(C(=O)N[C@@H](CC(=O)O)c2ccccc2F)nc1-c1ccccc1C(=O)N(C)C` [compound 295], the IC50 is reported as 4.51 µM.
For `CCc1ccnc(C(=O)N[C@@H](CC(=O)O)c2ccccc2C)c1` [compound 18], the IC50 was 3.06 µM.
`COc1ccc(-c2cncc(C(=O)N[C@@H](CC(=O)O)c3ccccc3C)c2)cc1` [compound 57] gave an IC50 of 11.5 µM.
Molecule `Cc1cc(C)nc(C(=O)N[C@@H](CC(=O)O)c2ccccc2C)c1` [compound 51] has an IC50 of 1.81 µM.
For `COc1ncc(C(=O)N[C@@H](CC(=O)O)c2ccccc2Cl)cc1-c1cccc(-c2ccccc2)c1` [compound 400], the IC50 was greater than 10 µM.
Work on `COc1ccc(C(=O)N[C@@H](CC(=O)O)c2ccc(C)cc2)nc1-c1ccc(C)cc1C` [compound 224] yielded an IC50 of 3.39 µM.
With `COc1ncc(C(=O)N[C@@H](CC(=O)O)c2ccccc2C)cc1-c1cccc(Cl)c1` [compound 413] the IC50 was 6.24 µM.
`Cc1ccccc1[C@H](CC(=O)O)NC(=O)c1cncc(-c2ccc3c(c2)OCO3)c1` [compound 76] gave an IC50 of 8.04 µM.
`COc1ncc(C(=O)N[C@@H](CC(=O)O)c2ccccc2C)cc1-c1cccc(-c2ccccc2)c1` [compound 423] was tested, and the IC50 was greater than 10 µM.
With `Cc1ccccc1[C@H](CC(=O)O)NC(=O)c1cncc(-c2ccccc2F)c1` [compound 69] the IC50 was 1.4 µM.
Work on `COc1ccc(C(C)(C)C)cc1-c1nc(C(=O)N[C@@H](CC(=O)O)c2ccc(C)cc2)ccc1OC` [compound 240] yielded an IC50 greater than 10 µM.
With `COc1ccccc1-c1cccc(C(=O)N[C@@H](CC(=O)O)c2ccccc2C)n1` [compound 44] the IC50 was 1.19 µM.
With `COc1ncc(C(=O)N[C@@H](CC(=O)O)c2ccccc2C)cc1-c1ccccc1C` [compound 411] the IC50 was 1.19 µM.

Same assay, conditions: read-out: Activity [μM] (IC50, cathepsin A inhibitory activity)
For `COc1ccc(C(=O)N[C@@H](CC(=O)O)c2ccccc2C)nc1-c1ccc(C)o1` [compound 376], the IC50 was 6.1 µM.
For `COc1ccc(C(=O)N[C@@H](CC(=O)O)c2ccccc2F)nc1-c1ccnc(N2CCOCC2)c1` [compound 321], the IC50 was greater than 10 µM.
`Cc1ccccc1[C@H](CC(=O)O)NC(=O)c1cccc(-c2ccc(F)c(F)c2)n1` [compound 151] gave an IC50 of 1.18 µM.
For `Cc1ccccc1[C@H](CC(=O)O)NC(=O)c1cccc(-c2cccc(C#N)c2)n1` [compound 145], the IC50 was 7.46 µM.
`COc1ccc(C(=O)N[C@@H](CC(=O)O)c2ccccc2F)nc1-c1cccc(C(C)(C)O)c1` [compound 327] showed an IC50 of 7.32 µM.
`Cc1cc(F)c(-c2cccc(C(=O)N[C@@H](CC(=O)O)c3ccccc3C)n2)cc1Cl` [compound 175] showed an IC50 of 2.36 µM.
Molecule `Cc1ccccc1[C@H](CC(=O)O)NC(=O)c1cccc(-c2cccc(F)c2C)n1` [compound 172] has an IC50 of 3.21 µM.
`COc1ccc(C(=O)N[C@@H](CC(=O)O)c2ccccc2Cl)nc1-c1ccc(C)cc1` [compound 336] gave an IC50 of 3.13 µM.
`Cc1ccccc1[C@H](CC(=O)O)NC(=O)c1cccc(-c2ccc3c(c2)OCO3)n1` [compound 152] showed an IC50 of 1.55 µM.
`Cc1ccccc1[C@H](CC(=O)O)NC(=O)c1cncc(-c2cccc(C)c2C)c1` [compound 116, (S)-3-{[5-(2,3-Dimethyl-phenyl)-pyridine-3-carbonyl]-amino}-3-o-tolyl-propionic acid] showed an IC50 of 1.01 µM.
In the case of `Cc1ccc(-c2cccc(C(=O)N[C@@H](CC(=O)O)c3ccccc3C)n2)cc1C` [compound 153], the IC50 is reported as 1.19 µM.
`COc1ccc(C(=O)N[C@@H](CC(=O)O)c2ccc(C)cc2)nc1-c1ccc(F)c(F)c1` [compound 208] gave an IC50 of 7.42 µM.
`COc1cccc(-c2nc(C(=O)N[C@@H](CC(=O)O)c3ccc(C)cc3)ccc2OC)c1` [compound 191] gave an IC50 of 4.57 µM.
`COc1ccc(C(=O)N[C@@H](CC(=O)O)c2ccc(C)cc2)nc1-c1ccc(Cl)cc1` [compound 186, (S)-3-{[6-(4-Chloro-phenyl)-5-methoxy-pyridine-2-carbonyl]-amino}-3-p-tolyl-propionic acid] was tested, and the IC50 was 3.56 µM.
For `Cc1ccccc1[C@H](CC(=O)O)NC(=O)c1cccc(-c2cccc(C(F)(F)F)c2)n1` [compound 133], the IC50 was 5.76 µM.
`COc1ccc(C(C)(C)C)cc1-c1nc(C(=O)N[C@@H](CC(=O)O)c2ccccc2F)ccc1OC` [compound 308] was tested, and the IC50 was greater than 10 µM.
`Cc1ccccc1[C@H](CC(=O)O)NC(=O)c1cccc(-c2cccc(OCC3CC3)c2)n1` [compound 171] gave an IC50 of 6.98 µM.
With `Cc1ccccc1[C@H](CC(=O)O)NC(=O)c1cccc(-c2cccc(Cl)c2)n1` [compound 140] the IC50 was 1.57 µM.
In the case of `COc1ccc(C(=O)N[C@@H](CC(=O)O)c2ccc(C)cc2)nc1-c1cccc(-c2ccccc2)c1` [compound 204], the IC50 is reported as 1.4 µM.
With `COc1ccc(C(=O)N[C@@H](CC(=O)O)c2ccccc2C)nc1-c1cc(F)cc(F)c1` [compound 362] the IC50 was 1.43 µM.
